{"source": "patent EP3390415B1", "about": "“(R)- AND (S)-1-(3-(3-N,N-DIMETHYLAMINOCARBONYL)PHENOXYL-4-NITROPHENYL)-1-ETHYL-N,N'-BIS (ETHYLENE)PHOSPHORAMIDATE, COMPOSITIONS AND METHODS FOR THEIR USE AND PREPARATION” (OBI PHARMA, INC., priority 2015, dated 2017)", "experiment_in_all_cases": "In vitro human tumor cell line cytotoxicity assay", "type_in_all_cases": "cell-based", "key": {"HL-60 Clone": {"test_system": "HL-60 Clone", "details": "read-out: RelIC50"}, "OE 21": {"test_system": "OE 21", "details": "OE21, read-out: RelIC50"}, "TE-14": {"test_system": "TE-14", "details": "read-out: RelIC50"}, "T.T": {"test_system": "T.T", "details": "TT, read-out: RelIC50"}, "HEL": {"test_system": "HEL", "details": "read-out: RelIC50"}, "C3A": {"test_system": "C3A", "details": "for pIC50: Homo sapiens"}, "COLO680N": {"test_system": "COLO680N", "details": "COLO-680N, read-out: RelIC50"}, "Jurkat": {"test_system": "Jurkat", "details": "read-out: RelIC50"}, "GR-ST": {"test_system": "GR-ST", "details": "read-out: RelIC50"}, "KG-1": {"test_system": "KG-1", "details": "read-out: RelIC50"}, "K-562": {"test_system": "K-562", "details": "K562, read-out: RelIC50"}, "KYSE": {"test_system": "KYSE", "details": "read-out: RelIC50"}, "TE-9": {"test_system": "TE-9", "details": "read-out: RelIC50"}, "ECa-109": {"test_system": "ECa-109", "details": "read-out: RelIC50"}, "KYSE 270": {"test_system": "KYSE 270", "details": "read-out: RelIC50"}, "HepG2": {"test_system": "HepG2", "details": "for pIC50: Homo sapiens"}, "EC-GI-10": {"test_system": "EC-GI-10", "details": "read-out: RelIC50"}}, "note": "pIC50: −log10 of the molar value. Like-named read-outs stand apart in the source and are kept apart here."}
{"molecule": "C[C@H](OP(=O)(N1CC1)N1CC1)c1ccc([N+](=O)[O-])c(Oc2cccc(C(=O)N(C)C)c2)c1", "note": "(single isomer, unassigned) [TH3424]", "values": [{"measurement": "pIC50", "setting": "HL-60 Clone", "value": 7.28}, {"measurement": "pIC50", "setting": "OE 21", "value": 8.28}, {"measurement": "pIC50", "setting": "TE-14", "value": 8.33}, {"measurement": "pIC50", "setting": "T.T", "value": 8.22}, {"measurement": "pIC50", "setting": "HEL", "value": 6.65}, {"measurement": "Max Inhibition%", "setting": "C3A", "value": 98.7, "unit": "%"}, {"measurement": "Min Inhibition%", "setting": "C3A", "value": -2.1, "unit": "%"}, {"measurement": "pIC50", "setting": "C3A; read-out: AbsIC50", "value": 8.03}, {"measurement": "pIC50", "setting": "C3A; read-out: RelIC50", "value": 8.39}, {"measurement": "pIC50", "setting": "COLO680N", "value": 7.18}, {"measurement": "pIC50", "setting": "Jurkat", "value": 7.40}, {"measurement": "pIC50", "setting": "GR-ST", "value": 7.00}, {"measurement": "pIC50", "setting": "KG-1", "value": 7.82}, {"measurement": "pIC50", "setting": "K-562", "value": "< 6.00"}, {"measurement": "pIC50", "setting": "KYSE", "value": 7.96}, {"measurement": "pIC50", "setting": "TE-9", "value": 7.96}, {"measurement": "pIC50", "setting": "ECa-109", "value": 7.77}, {"measurement": "pIC50", "setting": "KYSE 270", "value": 6.57}, {"measurement": "Max Inhibition%", "setting": "HepG2", "value": 100.2, "unit": "%"}, {"measurement": "Min Inhibition%", "setting": "HepG2", "value": 3.4, "unit": "%"}, {"measurement": "pIC50", "setting": "HepG2; read-out: AbsIC50", "value": 8.07}, {"measurement": "pIC50", "setting": "HepG2; read-out: RelIC50", "value": 8.14}, {"measurement": "pIC50", "setting": "EC-GI-10", "value": 7.89}]}
